LC retention time data for eight molecules are collected here from the RepoRT retention time repository (doi:10.1016/j.foodchem.2021.129757).

Molecules are shown by their SMILES.

A short description of one data set: RP, Phenomenex Luna Omega Polar C18, 100 × 2.1 mm, 1.6 µm, 40 °C, 0.5 mL/min, estimated dead time 0.44 min; A: water + 0.1% formic acid + 10 mM ammonium formate; B: acetonitrile; gradient (min/%B) 0/5 8/20 10/100 12/100 12.1/5 14/5. As to conditions: stereoisomer not certain.
Turning to `OCCc1ccc(O)c(O)c1` [Hydroxytyrosol], the LC retention time was 2.05 min.
Same read-out and setting: the same measure for `COc1c(O)cc(C(=O)O)cc1OS(=O)(=O)O` [4-O-methylgallic acid 3-O-sulfate]: 1.78 min.
Turning to `O=c1oc2cc(O)ccc2c2ccc(O)cc12` [Urolithin A], the LC retention time was 9.38 min.
As to `O=S(=O)(O)Oc1ccccc1O` [Catechol O-sulfate], the LC retention time is 1.79 min.
On the same count and under the same terms, the result for `CCCCCCCCCCCCCCCCCCCCCCCCCc1cc(O)cc(O)c1` [Alkylresorcinol C25:0] reads 11 min.
On to `CC1CCC2(C(=O)O)CCC3(C)C(=CCC4C5(C)CCC(O)C(C)(C)C5CCC43C)C2C1C` (centres undefined) [Ursolic acid], for which the LC retention time was 10.9 min.

A further data set can be described thus: RP, Waters ACQUITY UPLC HSS T3, 100 × 2.1 mm, 1.8 µm, 30 °C, 0.4 mL/min, estimated dead time 0.55 min; A: water + 0.1% formic acid, pH 3; B: acetonitrile + 0.1% formic acid, pH 3; gradient (min/%B) 0/0 2/0 15/100 22/100 22.1/0 26/0. The following applies: stereoisomer not certain.
As for `CCCCCCCCCCCCCCCCCc1cc(O)cc(O)c1` [Alkylresorcinol C17:0], the LC retention time is 20.3 min.
Same read-out and setting: the same measure for `COc1cc(CC2COC(c3ccc(O)c(OC)c3)C2CO)ccc1O` (single isomer, unassigned; (+)) [(+)-Lariciresinol]: 10.2 min; for `OCCc1ccc(O)c(O)c1` [Hydroxytyrosol]: 7.27 min.
Same read-out and setting: the same measure for `COc1c(O)cc(C(=O)O)cc1OS(=O)(=O)O` [4-O-methylgallic acid 3-O-sulfate]: 7.32 min; for `O=c1oc2cc(O)ccc2c2ccc(O)cc12` [Urolithin A]: 10.6 min.
Still for that read-out and setting: the result for `CC1CCC2(C(=O)O)CCC3(C)C(=CCC4C5(C)CCC(O)C(C)(C)C5CCC43C)C2C1C` (centres undefined) [Ursolic acid] reads 18.1 min.

The nature of a further data set: RP, Agilent ZORBAX Eclipse XDB-C18, 100 × 2.1 mm, 1.8 µm, 50 °C, 0.4 mL/min, estimated dead time 0.55 min; A: water + 0.1% formic acid, pH 3; B: methanol + 0.1% formic acid, pH 3; gradient (min/%B) 0/2 10/100 14.5/100 14.51/2 16.5/2. The following applies: stereoisomer not certain.
For the molecule `CCCCCCCCCCCCCCCCCc1cc(O)cc(O)c1` [Alkylresorcinol C17:0], the LC retention time is 11.1 min.
Regarding `COc1cc(CC2COC(c3ccc(O)c(OC)c3)C2CO)ccc1O` (single isomer, unassigned; (+)) [(+)-Lariciresinol], the LC retention time is 5.5 min.
`OCCc1ccc(O)c(O)c1` [Hydroxytyrosol]: the LC retention time is 2.44 min.
Same read-out and setting: the same measure for `COc1c(O)cc(C(=O)O)cc1OS(=O)(=O)O` [4-O-methylgallic acid 3-O-sulfate]: 2.27 min; for `O=c1oc2cc(O)ccc2c2ccc(O)cc12` [Urolithin A]: 5.95 min.
The same measure, in the same setting: the result for `O=S(=O)(O)Oc1ccccc1O` [Catechol O-sulfate] reads 2.1 min; that for `CCCCCCCCCCCCCCCCCCCCCCCCCc1cc(O)cc(O)c1` [Alkylresorcinol C25:0], 13 min.
Still for that read-out and setting: the result for `CC1CCC2(C(=O)O)CCC3(C)C(=CCC4C5(C)CCC(O)C(C)(C)C5CCC43C)C2C1C` (centres undefined) [Ursolic acid] reads 10.7 min.

The next data set is described as follows: RP, Waters ACQUITY UPLC BEH C18, 100 × 2.1 mm, 1.7 µm, 65 °C, 0.4 mL/min, estimated dead time 0.55 min; A: water + 0.1% formic acid, pH 3; B: 80% acetonitrile + 20% acetone + 0.1% formic acid, pH 3; gradient (min/%B) 0/0 5/100 5.5/0 6/0. As to conditions: stereoisomer not certain.
Consider `COc1cc(CC2COC(c3ccc(O)c(OC)c3)C2CO)ccc1O` (single isomer, unassigned; (+)) [(+)-Lariciresinol], for which the LC retention time was 2.48 min.

A short description of the next data set: RP, Waters ACQUITY UPLC BEH Shield RP18, 100 × 2.1 mm, 1.7 µm, 30 °C, 0.6 mL/min, estimated dead time 0.37 min; A: water + 0.1% formic acid, pH 3; B: acetonitrile + 0.1% formic acid, pH 3; gradient (min/%B) 0/0 2/0 7/10 22/95 22.1/0 26/0. The following applies: stereoisomer not certain.
For `COc1cc(CC2COC(c3ccc(O)c(OC)c3)C2CO)ccc1O` (single isomer, unassigned; (+)) [(+)-Lariciresinol], the LC retention time is 13.5 min.
For `COc1c(O)cc(C(=O)O)cc1OS(=O)(=O)O` [4-O-methylgallic acid 3-O-sulfate], the LC retention time is 10.4 min.
Still for that read-out and setting: the result for `O=c1oc2cc(O)ccc2c2ccc(O)cc12` [Urolithin A] reads 14.9 min; that for `CC1CCC2(C(=O)O)CCC3(C)C(=CCC4C5(C)CCC(O)C(C)(C)C5CCC43C)C2C1C` (centres undefined) [Ursolic acid], 22.7 min.

A further data set is described as follows: RP, Waters ACQUITY UPLC BEH Shield RP18, 150 × 2.1 mm, 1.7 µm, 40 °C, 0.4 mL/min, estimated dead time 0.83 min; A: water + 0.1% formic acid, pH 3; B: acetonitrile + 0.1% formic acid, pH 3; gradient (min/%B) 0/0 30/50 31/100 37/100 37.1/0. The following applies: stereoisomer not certain.
In the case of `COc1cc(CC2COC(c3ccc(O)c(OC)c3)C2CO)ccc1O` (single isomer, unassigned; (+)) [(+)-Lariciresinol], the LC retention time is 15 min.
The same measure, in the same setting: the result for `OCCc1ccc(O)c(O)c1` [Hydroxytyrosol] reads 3.26 min.
Still for that read-out and setting: the result for `O=c1oc2cc(O)ccc2c2ccc(O)cc12` [Urolithin A] reads 18.4 min; that for `O=S(=O)(O)Oc1ccccc1O` [Catechol O-sulfate], 7.99 min.
Still for that read-out and setting: the same measure for `CC1CCC2(C(=O)O)CCC3(C)C(=CCC4C5(C)CCC(O)C(C)(C)C5CCC43C)C2C1C` (centres undefined) [Ursolic acid]: 34.2 min.

The next data set is described as follows: RP, Agilent ZORBAX RRHD Eclipse Plus C18, 50 × 2.1 mm, 1.8 µm, 30 °C, 0.4 mL/min, estimated dead time 0.28 min; A: water + 0.1% formic acid, pH 3; B: acetonitrile + 0.1% formic acid, pH 3; gradient (min/%B) 0/1 5/10 8/25 9.1/99 10/99 12/1. The following applies: stereoisomer not certain.
On to `COc1c(O)cc(C(=O)O)cc1OS(=O)(=O)O` [4-O-methylgallic acid 3-O-sulfate], for which the LC retention time is 3.6 min.
Still for that read-out and setting: the same measure for `O=S(=O)(O)Oc1ccccc1O` [Catechol O-sulfate]: 2.95 min.

The next data set in a line: RP, Agilent ZORBAX RRHD Eclipse Plus C18, 50 × 2.1 mm, 1.8 µm, 30 °C, 0.4 mL/min, estimated dead time 0.28 min; A: water + 0.1% formic acid, pH 3; B: acetonitrile + 0.1% formic acid, pH 3; gradient (min/%B) 0/1 5/10 8/25 9.1/99 10/99 12/99. The following applies: stereoisomer not certain.
Regarding `COc1c(O)cc(C(=O)O)cc1OS(=O)(=O)O` [4-O-methylgallic acid 3-O-sulfate], the LC retention time is 1.15 min.
Same read-out and setting: the result for `O=S(=O)(O)Oc1ccccc1O` [Catechol O-sulfate] reads 1.45 min.

The nature of another data set: RP, Agilent InfinityLab Poroshell 120 EC-C18, 100 × 3 mm, 2.7 µm, 25 °C, 0.4 mL/min, estimated dead time 1.1 min; A: water + 0.1% formic acid, pH 3; B: acetonitrile + 0.1% formic acid, pH 3; gradient (min/%B) 0/5 10/25 20/40 24/90 25/90 26/5 30/5. The following applies: stereoisomer not certain.
On to `COc1cc(CC2COC(c3ccc(O)c(OC)c3)C2CO)ccc1O` (single isomer, unassigned; (+)) [(+)-Lariciresinol], for which the LC retention time is 12.1 min.
Still for that read-out and setting: the same measure for `OCCc1ccc(O)c(O)c1` [Hydroxytyrosol]: 3.8 min.
As to `COc1c(O)cc(C(=O)O)cc1OS(=O)(=O)O` [4-O-methylgallic acid 3-O-sulfate], the LC retention time is 3.61 min.
The same measure, in the same setting: the result for `O=c1oc2cc(O)ccc2c2ccc(O)cc12` [Urolithin A] reads 13.1 min; that for `O=S(=O)(O)Oc1ccccc1O` [Catechol O-sulfate], 4.22 min.
